PMC2364952, “The Anti-Inflammatory Activity of Boron Derivatives in Rodents” (Metal-Based Drugs, 1995)

How the values were obtained:
trypsin [1] = assay: Trypsin proteolytic activity, mouse macrophages; assay type: cell-based, mouse (J774 macrophages); conditions: Table 5; read-out: IC50 Trypsin, Mouse Macrophage
[2] = tested on: acetic acid induced stretch reflex; assay: Local analgesic screen (acetic acid writhing); assay type: in vivo, CF1 mice; conditions: for Mice Writhing Reflex: 8 mg/kg I.P., Table 2; for reduction of the reflex action: mice, acetic acid induced local pain, 8 mg/kg
trypsin [3] = assay: Trypsin activity, UMR-106 osteosarcoma cells; assay type: cell-based; conditions: Table 6; read-out: IC50 Trypsin, Rat UMR-106 Bone Osteosarcoma
elastase [4] = assay: Elastase activity, UMR-106 osteosarcoma cells; assay type: cell-based; conditions: Table 6; read-out: IC50 Elastase, Rat UMR-106 Bone Osteosarcoma
neutral cathepsin = assay: Cathepsin activity, UMR-106 osteosarcoma cells; assay type: cell-based; conditions: Table 6; read-out: IC50 Neutral Cathepsin, Rat UMR-106 Bone Osteosarcoma
acid phosphatase = assay: Acid phosphatase activity, mouse macrophages; assay type: cell-based, mouse (J774 macrophages); conditions: Table 3; read-out: IC50 Acid Phosphatase, Mouse Macrophage
elastase [5] = assay: Elastase activity, mouse macrophages; assay type: cell-based, mouse (J774 macrophages); conditions: Table 5; read-out: IC50 Elastase, Mouse Macrophage
cathepsin = assay: Cathepsin activity, mouse macrophages; assay type: cell-based, mouse (J774 macrophages); conditions: Table 3; read-out: IC50 Cathepsin, Mouse Macrophage
[6] = target: prostaglandin cyclooxygenase; assay: Prostaglandin cyclooxygenase activity, macrophages; assay type: cell-based, mouse (J774 macrophages); conditions: Table 7
aryl sulphatase = assay: Aryl sulfatase activity, mouse macrophages; assay type: cell-based, mouse (J774 macrophages); conditions: Table 3; read-out: IC50 Aryl Sulfatase, Mouse Macrophage
[7] = tested on: carrageenan-induced inflammation of paw; assay: Carrageenan-induced paw edema, rats; assay type: in vivo, Sprague Dawley male rats; conditions: 8 mg/kg x 2, I.P., Table 2;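 further: paw weight increase as percent of control rats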
[8] = tested on: adjuvant (M. butyricum) arthritis; assay: Chronic adjuvant arthritic screen; assay type: in vivo; conditions: rats; for activity in chronic arthritis screen / reduction of pannus: 8 mg/kg/day; for Rat Chronic Arthritis: 8 mg/kg/day I.P., Day 3 to Day 21, Table 2
[9] = tested on: carrageenan-induced pleural fluid; assay: Anti-pleurisy screen; assay type: in vivo, Sprague Dawley male rats; conditions: for pleurisy edema in rats: 8 mg/kg; for Rat Pleurisy: rats, 8 mg/kg I.P., 1 h before and 3 h after carrageenan, Table 2;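 on Rat Pleurisy: Pleural fluid volume as percent of control rats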
[10] = tested on: tail flick response to heat; assay: Hot plate tail flick screen; assay type: in vivo, CF1 male mice; conditions: for Mice Tail Flick: 8 mg/kg I.P., hot plate, Table 2; for tail flick assay time: mice, 8 mg/kg
5'-lipoxygenase [11] = target: T1, 5'-lipoxygenase (Mus musculus, UniProt P48999); assay: 5'-Lipoxygenase activity, mouse macrophages; assay type: cell-based; conditions: Table 7; read-out: IC50 5'-Lipoxygenase, Mouse Macrophage
T1 construct: endogenous in cells; host or cells: mouse macrophages (J774A as maintained above)
T1 sequence (P48999 1-674): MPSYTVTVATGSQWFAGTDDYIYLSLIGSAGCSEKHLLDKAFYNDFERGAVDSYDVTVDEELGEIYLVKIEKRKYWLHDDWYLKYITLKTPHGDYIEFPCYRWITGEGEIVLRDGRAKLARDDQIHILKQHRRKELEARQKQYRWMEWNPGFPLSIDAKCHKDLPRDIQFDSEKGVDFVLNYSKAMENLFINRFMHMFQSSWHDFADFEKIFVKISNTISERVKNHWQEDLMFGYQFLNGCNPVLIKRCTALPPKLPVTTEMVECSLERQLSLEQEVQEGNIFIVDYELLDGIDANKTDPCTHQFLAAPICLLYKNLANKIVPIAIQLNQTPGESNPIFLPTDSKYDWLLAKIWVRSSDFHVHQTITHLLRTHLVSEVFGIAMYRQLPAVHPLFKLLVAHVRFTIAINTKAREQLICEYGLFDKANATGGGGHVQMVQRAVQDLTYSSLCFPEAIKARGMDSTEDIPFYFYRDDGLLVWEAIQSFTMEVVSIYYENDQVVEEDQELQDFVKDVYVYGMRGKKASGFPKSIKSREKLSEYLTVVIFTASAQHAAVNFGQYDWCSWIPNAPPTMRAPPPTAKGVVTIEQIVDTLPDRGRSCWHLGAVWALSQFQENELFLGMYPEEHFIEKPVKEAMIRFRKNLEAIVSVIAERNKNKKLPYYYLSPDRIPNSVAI

5'-lipoxygenase [12] = target: T2, 5'-lipoxygenase (Homo sapiens, UniProt P09917); assay: 5'-Lipoxygenase activity, human leukocytes; assay type: cell-based; conditions: Table 7
T2 construct: endogenous in cells; host or cells: RMPI 1788 human leukocytes
T2 sequence (P09917 1-674): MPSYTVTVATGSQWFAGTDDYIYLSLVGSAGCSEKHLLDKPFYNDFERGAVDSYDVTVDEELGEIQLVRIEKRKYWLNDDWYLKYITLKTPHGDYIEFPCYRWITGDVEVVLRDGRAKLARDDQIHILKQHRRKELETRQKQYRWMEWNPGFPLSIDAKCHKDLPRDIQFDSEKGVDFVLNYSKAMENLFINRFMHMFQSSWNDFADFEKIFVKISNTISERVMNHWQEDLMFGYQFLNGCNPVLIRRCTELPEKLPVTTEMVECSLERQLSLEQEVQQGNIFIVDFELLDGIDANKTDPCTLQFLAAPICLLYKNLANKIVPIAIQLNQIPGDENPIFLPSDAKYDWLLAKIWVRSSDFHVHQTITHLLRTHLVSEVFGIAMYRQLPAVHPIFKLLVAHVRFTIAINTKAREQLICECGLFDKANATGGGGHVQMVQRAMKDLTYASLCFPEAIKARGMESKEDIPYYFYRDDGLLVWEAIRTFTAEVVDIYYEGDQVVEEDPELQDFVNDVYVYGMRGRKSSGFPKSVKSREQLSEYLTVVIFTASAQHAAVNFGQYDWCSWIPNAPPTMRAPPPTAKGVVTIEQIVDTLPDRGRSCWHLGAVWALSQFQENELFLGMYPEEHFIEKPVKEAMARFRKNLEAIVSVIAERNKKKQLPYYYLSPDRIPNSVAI

[13] = target: T3, prostaglandin cyclooxygenase (Bos taurus, UniProt O62664); assay: Prostaglandin synthetase from bovine seminal vesicles; assay type: biochemical; conditions: Table 7; read-out: IC50 Prostaglandin Cyclooxygenase, Beef Seminal Vesicle
T3 construct: purified commercial prostaglandin synthetase from bovine seminal vesicles (Miles Research Products); purchased Miles Research Products; host or cells: bovine seminal vesicles (tissue preparation)
T3 sequence (O62664 25-600): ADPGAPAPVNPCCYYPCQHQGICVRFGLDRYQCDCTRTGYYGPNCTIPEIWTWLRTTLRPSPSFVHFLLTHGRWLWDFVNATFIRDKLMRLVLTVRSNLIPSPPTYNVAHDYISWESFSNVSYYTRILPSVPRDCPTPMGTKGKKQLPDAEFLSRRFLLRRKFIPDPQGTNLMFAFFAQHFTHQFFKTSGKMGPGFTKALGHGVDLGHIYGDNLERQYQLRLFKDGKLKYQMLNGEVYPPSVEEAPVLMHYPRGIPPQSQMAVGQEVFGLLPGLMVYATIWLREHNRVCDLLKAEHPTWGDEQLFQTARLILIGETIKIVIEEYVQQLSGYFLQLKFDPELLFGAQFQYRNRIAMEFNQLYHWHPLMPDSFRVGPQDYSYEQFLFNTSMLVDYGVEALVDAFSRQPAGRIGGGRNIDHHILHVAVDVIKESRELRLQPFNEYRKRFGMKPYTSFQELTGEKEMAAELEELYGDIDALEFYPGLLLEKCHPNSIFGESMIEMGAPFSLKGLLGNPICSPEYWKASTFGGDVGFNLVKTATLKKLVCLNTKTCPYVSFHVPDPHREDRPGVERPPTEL

[14] = tested on: prostaglandin cyclooxygenase; assay: Prostaglandin cyclooxygenase activity, Be Sal cells; assay type: cell-based, human (Be Sal osteofibrolytic cells); conditions: Table 7; read-out: IC50 Prostaglandin Cyclooxygenase, Be Sal Osteofibro
[15] = tested on: carrageenan-induced inflammation of hind foot; assay: Carrageenan-induced foot edema, mice; assay type: in vivo, CF1 male mice; conditions: for reduction of induced edema: mice, 8 mg/kg x 2, I.P., carrageenan

Row | Structure (SMILES) | IC50 (trypsin [1]) [µM] | Mice Writhing Reflex [2] | reduction of the reflex action [2] | IC50 (trypsin [3]) [µM] | IC50 (elastase [4]) [µM] | IC50 (neutral cathepsin) [µM] | IC50 (acid phosphatase) [µM] | IC50 (elastase [5]) [µM] | IC50 (cathepsin) [µM] | IC50 [6] [µM] | IC50 (aryl sulphatase) [µM] | Rat Inflammatory [7] | Rat Chronic Arthritis [8] | other results
1 | [BH3-][NH2+]C(C)(C)C [Compound 1] | 2.09 | 19 % of control | 80% | 7.74 | 9.26 | 4.67 | 8.08 | 0.22 | 4.62 | 4.19 | – | – | – | –
2 | C[NH2+][BH2-]C(=O)O [Compound 2] | 2.34 | 31 % of control | at least 45% | 9.89 | 8.94 | 5.82 | 0.9 | 2.32 | 9.45 | 3.5 | 8.3 | 70 % of control | 53 % of control | activity in chronic arthritis screen [8]: significantly active; pleurisy edema in rats [9]: reduced significantly; Rat Pleurisy [9]: 61 % of control; Mice Tail Flick [10]: 147 % of control; tail flick assay time [10]: increased
3 | C[N+](C)([BH2-]C(=O)O)CC[N+](C)(C)[BH2-]C(=O)O [Compound 7] | 2.33 | 55 % of control | at least 45% | – | – | – | 3.32 | 2.76 | 8.37 | 1.85 | – | – | 24 % of control | reduction of pannus [8]: greater than 75%
4 | CCOC(=O)[BH2-][NH+](C)C [Compound 20] | 2.02 | – | at least 45% | 9.18 | 10.3 | 6.62 | 1.12 | 3.28 | 3.94 | – | 9.27 | – | 13 % of control | reduction of pannus [8]: greater than 75%; pleurisy edema in rats [9]: reduced significantly; Rat Pleurisy [9]: 61 % of control
5 | C[NH+](C)[BH2-]C#N [Compound 33] | 2.44 | 15 % of control | 80% | 7.54 | 9.04 | 6.24 | 1.13 | 2.53 | 5.54 | 5.92 | 9.02 | 61 % of control | – | IC50 (5'-lipoxygenase [11]): 9.89 µM; IC50 (5'-lipoxygenase [12]): 3.47 µM
6 | CCCCCCCCCCCCCCCC[N+](C)(C)[BH2-]C#N [Compound 35] | 2.69 | 16 % of control | 80% | 7.28 | 9.19 | 6.31 | 0.33 | 2.75 | 4.97 | – | 7.16 | – | – | –
7 | C[N+](C)(C)[BH2-]C(C#N)c1ccccc1 (centres unmarked) [Compound 46] | 2.4 | 46 % of control | at least 45% | – | – | – | 7.72 | 5.21 | 2.57 | 6.59 | 3.4 | – | – | IC50 [13]: 0.71 µM; Mice Tail Flick [10]: 191 % of control; tail flick assay time [10]: increased; IC50 [14]: 2.33 µM
8 | CC[N+]#C[BH2-][N+](C)(C)C.F[B-](F)(F)F [Compound 74] | 1.83 | 40 % of control | at least 45% | 10.5 | 10 | 6.55 | 1.31 | 2.32 | 9.13 | 1.52 | 6.03 | 81 % of control | – | reduction of induced edema [15]: at least 40%
9 | C[N+](C)(C)[BH2-]C(=O)NO.Cl [Compound 77] | 2.14 | 41 % of control | at least 45% | – | – | – | 6.59 | 1.49 | 5.13 | 7.72 | 1.4 | – | – | Mice Tail Flick [10]: 139 % of control; IC50 [14]: 1.09 µM
10 | [BH3-][NH+]1CCOCC1 [Compound 78] | 2.39 | 15 % of control | 80% | – | – | – | 3.18 | 5.94 | 0.76 | 1.47 | – | 83 % of control | 33 % of control | reduction of induced edema [15]: 45%; activity in chronic arthritis screen [8]: significantly active
11 | O=C(O)[BH2-][NH+]1CCOCC1 [Compound 83] | 2.37 | – | – | 9.89 | 8.09 | 5.41 | 0.16 | 0.96 | 1.76 | – | 7.59 | – | – | reduction of induced edema [15]: at least 30%
12 | COc1ccc2c(c1)c(CC(=O)O)c(C)n2C(=O)c1ccc(Cl)cc1 [Indomethacin, indomethacin, reference compound] | – | 43 % of control | – | – | – | – | – | – | – | – | – | 78 % of control | 55 % of control | inhibition of induced inflammation ([15]; standards at their therapeutic dose (indomethacin 8 mg/kg x 2, pentoxifylline and phenylbutazone 50 mg/kg x 2)): 26%; Rat Pleurisy [9]: 12 % of control
